In publication PMC2921063 (Cancer Chemotherapy and Pharmacology, 2010):

How the values were obtained:
alemtuzumab = test: Cognate antibody binding to peptide beads, alemtuzumab; details: 10 μm TentaGel beads; flow cytometry and fluorescent microscopy
rituximab = test: Cognate antibody binding to peptide beads, rituximab; details: 10 μm TentaGel beads; flow cytometry and fluorescent microscopy
[1] = Alemtuzumab bead-based detection in normal human serum; type: binding; details: alemtuzumab titrated into normal human serum; fluorescent secondary anti-human IgG; flow cytometry

## ACGSLSPSSCGGGS [pCp-1T]
alemtuzumab
  antibody binding to peptide beads: Specific cognate antibody binding was confirmed

## ACPTSNPSLCGGGS [pRTX-10T]
rituximab
  antibody binding to peptide beads: Specific cognate antibody binding was confirmed

## alemtuzumab: anti-CD52 monoclonal antibody (Genzyme)
[1]
  bead fluorescence vs alemtuzumab concentration: fluorescent signals correlated with the alemtuzumab concentration
